From ChEMBL document CHEMBL2176906, “Diterpenoids isolated from Sideritis species protect astrocytes against oxidative stress via Nrf2” (J Nat Prod, 2012)
Active and inactive are the calls of the source. The calls are words filed in the database; no cut-off is given here.

Tested on: U373 MG
Assay: Inhibition of AAPH-induced oxidative stress in human U373MG cells assessed as peroxy radical scavenging activity at 8 uM by ORAC assay
Format: functional, cell-based
Settings: U-373MG ATCC

`Cc1c(C)c2c(c(C)c1O)CCC(C)(C(=O)O)O2` (stereo unspecified) was tested, and the Activity was “Active”.
